# “And” between values parts separate entries of the source, which are not always exact repeats. Equal entries are not always repeated.
# What was measured:
# [1] = system: canine interferon-β (Ifn-β); assay: RT-qPCR of Ifn-β mRNA in MDCK cells with or without A/PR/8/34 virus; type: cell-based; details: 12.5uM, relative to virus - DMSO; for MDCK IFN-b mRNA, ave: ave of #1-3 exp; for MDCK IFN-b mRNA, individual replicates: replicates 1-3 of #1, #2, #3 exp, listed as Cyclobakuchiol D
# A/WSN/33 virus [2] = assay: Immunofluorescence staining of viral NP in influenza A virus-infected MDCK cells; details: WSN
# A/PR/8/34 virus [3] = assay: as above; details: for NP/DAPI (%) ave: average of 9 wells
# Method: MDCK cells were seeded on a 96-well plate at 1 × 10^4 cells/well. […] Each mixture was added to the cells at 37°C in the presence of 5% CO2. […] After influenza A viral infection for 24 h, the cells were fixed with 4% paraformaldehyde in phosphate-buffered saline (PBS) for 30 min at 4°C and subsequently permeabilized by the addition of 0.3% Triton X-100 for 20 min at 25°C. A mouse primary antibody was used to detect the NP of A/PR/8/34 or A/WSN/33 viruses (FluA-NP 4F1; SouthernBiotech, AL, USA). Alexa Fluor488-conjugated goat anti-mouse IgG (H + L) antibody (Thermo Fisher Scientific) was used as the secondary antibody. Cell nuclei were then stained using diamidino-2-phenylindole (DAPI) (Thermo Fisher Scientific). Wells were photographed using a fluorescence microscope (BIOREVO BZ-X700; Keyence, Osaka, Japan). The proportion of influenza A NP-positive cells per DAPI-positive cells was calculated based on measurements recorded using BZ-X Analyzer software (Keyence).
# A/PR/8/34 virus [4] = assay: RT-qPCR of viral mRNAs (NP, NS1, PA, PB1, PB2, M2) in infected MDCK cells; type: cell-based, influenza A H1N1 virus
# A/WSN/33 virus [5] = assay: Influenza A viral growth assay (viral titer of culture media); type: cell-based, influenza A H1N1 virus; details: A/WSN/33 (WSN), 12.5uM, average of #1-3 exp (n=9)
# A/PR/8/34 virus [6] = assay: as above; type: cell-based, influenza A H1N1 virus; set-up: viral titer of culture media, individual replicate / viral titer of culture media, ave: unit not given here; details: A/PR/8/34 (PR8), 12.5uM, average of #1-3 exp (n=9)
# A/PR/8/34 virus [7] = type: cell-based; details: 12.5 μM, 24h WB
# Nrf2 = Nrf2 reporter assay (dual luciferase system) in MDCK cells; type: cell-based, canine
# [8] = system: NAD(P)H quinone oxidoreductase 1 (Nqo1); assay: RT-qPCR of Nqo1 mRNA in MDCK cells with or without A/PR/8/34 virus; type: cell-based, canine; details: 12.5uM, MDCK, relative to virus - DMSO; for NQO1 Canis lupus mRNA, ave: ave of #1-3 exp; for NQO1 Canis lupus mRNA, individual replicates: replicates 1-3 of #1, #2, #3 exp, listed as Cyclobakuchiol D
# [9] = MDCK cells, PR8 virus, relative to DMSO (about 1), ave of #1-3 exp (9 values)
# [10] = MDCK cells, PR8 virus, relative to DMSO, replicates 1-3 of #1, #2, #3 exp, listed as Cyclobakuchiol D
# [11] = single experiment, listed as cyclo D
structure (smiles),measurement,setting,value
C=C[C@]1(C)CCC(C(C)(C)O)C(c2ccc(O)cc2)C1 (stereo in doubt) [cyclobakuchiol D],"MDCK IFN-b mRNA, ave",[1]; virus +,17.4654
same,"MDCK IFN-b mRNA, individual replicates",[1]; virus +,2.418 and 33.9435 and 15.7832 and 32.7435 and 6.882 and 51.6835 and 8.73 and 2.955 and 2.05
same,"MDCK IFN-b mRNA, ave",[1]; virus -,2.784
same,"MDCK IFN-b mRNA, individual replicates",[1]; virus -,0.8154 and 7.71 and 7.894 and 3.201 and 1.087 and 1.374 and 1.346 and 0.9591 and 0.6654
same,NP/DAPI (%) ave,"A/WSN/33 virus [2]; 3.13uM, ave of 9 values (3 exp)",30.4806%
same,NP/DAPI (%) ave,"A/WSN/33 virus [2]; 6.25uM, ave of 9 values (3 exp)",29.9222%
same,NP/DAPI (%) ave,"A/WSN/33 virus [2]; 12.5uM, ave of 9 values (3 exp)",34.4723%
same,NP/DAPI (%) ave,"A/WSN/33 virus [2]; 25uM, ave of 9 values (3 exp)",38.5623%
same,NP/DAPI (%) ave,"A/WSN/33 virus [2]; ave summary, 3.13%",30.4806%
same,NP/DAPI (%) ave,"A/WSN/33 virus [2]; ave summary, 6.25%",29.9222%
same,NP/DAPI (%) ave,"A/WSN/33 virus [2]; ave summary, 12.50%",34.4723%
same,NP/DAPI (%) ave,"A/WSN/33 virus [2]; ave summary, 25%",38.5623%
same,NP/DAPI (%) ave,"A/PR/8/34 virus [3]; A/PR/8/34, 3.13 uM",8.962%
same,NP (NP-positive cell count),"A/PR/8/34 virus [3]; A/PR/8/34, 3.13 uM, single well, listed as Cyclobaku. D",26 and 38 and 24 and 36 and 32 and 28 and 35 and 30
same,NP/DAPI (%) ave,"A/PR/8/34 virus [3]; A/PR/8/34, 6.25 uM",5.506%
same,NP/DAPI (%) ave,"A/PR/8/34 virus [3]; A/PR/8/34, 12.5 uM",1.974%
same,NP/DAPI (%) ave,"A/PR/8/34 virus [3]; A/PR/8/34, 25 uM",1.609%
same,IC50,"A/PR/8/34 virus [3]; Influenza A virus, PR/8, MDCK, read-out: half maximal (50%) inhibitory concentration (IC50)",8.8 ± 2.4 µM
same,"PR8 NP gene expression qPCR, ave","A/PR/8/34 virus [4]; MDCK PR8, NP mRNA, relative (DMSO about 1), average of #1-3 exp (n=9)",0.07153
same,"PR8 NP gene expression qPCR, individual replicate","A/PR/8/34 virus [4]; MDCK PR8, NP mRNA, relative (DMSO about 1), replicates of #1-3 exp, listed as Cyclobakuchiol D",0.03886 and 0.05994 and 0.05606 and 0.05458 and 0.125 and 0.1151 and 0.1425 and 0.0275 and 0.02409
same,"PR8 NS1 gene expression qPCR, ave","A/PR/8/34 virus [4]; MDCK PR8, NS1 mRNA, relative (DMSO about 1), average of #1-3 exp (n=9)",0.04518
same,"PR8 NS1 gene expression qPCR, individual replicate","A/PR/8/34 virus [4]; MDCK PR8, NS1 mRNA, relative (DMSO about 1), replicates of #1-3 exp, listed as Cyclobakuchiol D",0.02832 and 0.04013 and 0.04518 and 0.04355 and 0.06568 and 0.06468 and 0.07589 and 0.02316 and 0.02
same,"PR8 PA gene expression qPCR, ave","A/PR/8/34 virus [4]; MDCK PR8, PA mRNA, relative (DMSO about 1), average of #1-3 exp (n=9)",0.04749
same,"PR8 PA gene expression qPCR, individual replicate","A/PR/8/34 virus [4]; MDCK PR8, PA mRNA, relative (DMSO about 1), replicates of #1-3 exp, listed as Cyclobakuchiol D",0.03007 and 0.03859 and 0.03028 and 0.03293 and 0.08115 and 0.07941 and 0.08873 and 0.02395 and 0.02226
same,"PR8 M2 gene expression qPCR, ave",A/PR/8/34 virus [4]; [9],0.04919
same,"PR8 PB1 gene expression qPCR, ave",A/PR/8/34 virus [4]; [9],0.04173
same,"PR8 PB2 gene expression qPCR, ave",A/PR/8/34 virus [4]; [9],0.05311
same,"PR8 M2 gene expression qPCR, individual replicates",A/PR/8/34 virus [4]; [10],0.03101 and 0.05567 and 0.03306 and 0.04539 and 0.07613 and 0.07839 and 0.08038 and 0.02111 and 0.02153
same,"PR8 PB1 gene expression qPCR, individual replicates",A/PR/8/34 virus [4]; [10],0.03148 and 0.02292 and 0.01741 and 0.02275 and 0.0784 and 0.07991 and 0.07514 and 0.02623 and 0.02132
same,"PR8 PB2 gene expression qPCR, individual replicates",A/PR/8/34 virus [4]; [10],0.03118 and 0.04821 and 0.03936 and 0.04228 and 0.08338 and 0.07806 and 0.1008 and 0.0302 and 0.02454
same,"viral titer of culture media, ave",A/WSN/33 virus [5]; 12h,10344.4
same,"viral titer of culture media, ave",A/WSN/33 virus [5]; 24h,25855556
same,"viral titer of culture media, ave",A/WSN/33 virus [5]; 48h,191111111
same,"viral titer of culture media, ave",A/WSN/33 virus [5]; 72h,140200000
same,"viral titer of culture media, ave",A/PR/8/34 virus [6]; 12h,23333.3
same,"viral titer of culture media, ave",A/PR/8/34 virus [6]; 24h,46666.7
same,"viral titer of culture media, ave",A/PR/8/34 virus [6]; 48h,42222.2
same,"viral titer of culture media, ave",A/PR/8/34 virus [6]; 72h,51111.1
same,NP/b-actin ave,A/PR/8/34 virus [7]; average of 3 experiments,0.8053
same,NS1/b-actin ave,A/PR/8/34 virus [7]; average of 3 experiments,0.5049
same,"NP mean (western blot signal intensity, ImageJ)",A/PR/8/34 virus [7]; [11],94.385 and 99.104 and 119.4
same,NP/b-actin,A/PR/8/34 virus [7]; [11],0.9145 and 0.7726 and 0.7289
same,NS1/b-actin,A/PR/8/34 virus [7]; [11],0.4761 and 0.5377 and 0.5009
same,"NS1 mean (western blot signal intensity, ImageJ)",A/PR/8/34 virus [7]; [11],65.696 and 68.111 and 62.157
same,Nrf2 activation (reporter assay) in contrast to DMSO,"Nrf2; 12.5 μM, 24 h, MDCK cells",did not induce Nrf2 activation
same,"pNQO1-ARE-Luc NRF2 reporter assay, ave","Nrf2; 12.5uM, relative to DMSO trans+, ave of #1-3 exp",1.2008
same,"pNQO1-ARE-Luc NRF2 reporter assay, individual replicates","Nrf2; 12.5uM, relative to DMSO trans+, two values each of #1, #2, #3 exp, listed as Cyclobakuchiol D",1.181 and 1.006 and 1.453 and 1.158 and 1.274 and 1.134
same,"NQO1 Canis lupus mRNA, ave",[8]; virus + (PR8),1.2349
same,"NQO1 Canis lupus mRNA, individual replicates",[8]; virus + (PR8),1.289 and 1.376 and 1.34 and 1.5629 and 0.8611 and 0.8923 and 0.9522 and 1.447 and 1.3929
same,"NQO1 Canis lupus mRNA, ave",[8]; virus -,1.178
same,"NQO1 Canis lupus mRNA, individual replicates",[8]; virus -,1.099 and 1.305 and 1.308 and 1.291 and 1.087 and 1.132 and 1.031 and 1.075 and 1.276

# — article PMC7997032, “Organic synthesis and anti-influenza A virus activity of cyclobakuchiols A, B, C, and D” (PLoS ONE, 2021)
